Measured values: patent US8753570B2, “Structure, synthesis, and applications for oligo phenylene ethynylenes” (STC.UNM, priority 2008, dated 2014)

Test system: Bacillus atrophaeus
Experiment: Dark and uv biocidal activity
Assay type: cell-based

## C[N+](C)(C)CCCOc1ccc(C#Cc2ccc(C#Cc3ccc(OCCC[N+](C)(C)C)cc3)cc2)cc1 [S-OPE-EO]
365 nm uv light, 30 minutes
  killing under uv: almost the same level killing
dark, 6 hour exposure
  killing in the dark: several log kills
In the dark and upon uv irradiation
  biocidal activity: remarkable biocidal activity
